Experimental data taken from patent US20020142347A1, “Biosensor” (BIOSENSOR ApS, priority 2000, published 2002).
Residue numbers refer to the chain shown, from its start.

Assays:
[1] = biological target: T1, native bovine ACBP (Bos taurus, UniProt P07107); settings: isothermal titration microcalorimetry, >0.1 M salt; literature; read-out: KD for binding to native bovine ACBP; cited from earlier work
T1 sequence (P07107 1-87): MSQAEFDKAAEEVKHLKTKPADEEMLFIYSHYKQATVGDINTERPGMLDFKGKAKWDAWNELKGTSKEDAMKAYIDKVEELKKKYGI

[2] = biological target: T2, FACI53 (Bos taurus, UniProt P07107, A54C); test: Isothermal titration calorimetry of acyl-CoA binding to FACI53; design: species or system bovine
T2 construct: badan (6-bromoacetyl-2-dimethylaminonaphthalene) fluorophore on the introduced Cys-53; made in house; host or cells: E. coli BL21(DE3)pLysS, pET3a vector
T2 sequence (P07107 2-87 A54C): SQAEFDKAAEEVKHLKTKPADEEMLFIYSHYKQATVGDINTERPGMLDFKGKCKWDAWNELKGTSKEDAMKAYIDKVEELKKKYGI
Experimental: Reference is made to FIG. 2. and FIG. 3. which depict the emission spectra of FACI24 and FACI53 titrated with increasing concentrations of CoA, C4-, C8-, C12-, C16- and C20-CoA esters. The addition of ligand and measurement of emission of FACI24 and FACI53 was performed as described in example 2. The increased addition of ligand to the mutated and modified proteins caused a proportional spectral change. The normal physiological binding profile was confirmed by direct binding studies using isoelectrical focusing as predicted in FIG. 4. […] The results clearly indicate that fluorescence emission at 470 nm may provide a measure for the concentration of free unbound long-chain(>C12)-acyl-CoA ester.
Quantitative determination of binding affinities (KD) were performed by isothermal titration micro calorimetry as previously described (Faergeman et. al., 1996; Biochemistry 35, 14118-14126). Qualitative evaluation of relative binding affinities were determined by isoelectrical focusing using the Pharmacia Fast Gel system according to the prescriptions given by the manufacture. […] The fluorescence emission was measured on a SPEX FLOUROLOG (Industries Inc, Edison N.J., USA) with excitation at 400 nm and emission scan from 400 nm to 550 nm. […]

[3] = biological target: T3, FACI-24 (Bos taurus, UniProt P07107, M25C); test: Fluorescence titration equilibrium binding analysis of CoA and acyl-CoA esters to FACI-24; design: species or system bovine; settings: FACI-24 (1.5 μM) titrated with increasing CoA and acyl-CoA concentration; fitted binding curves, emission 460 nm; read-out: Kd (nM) ± S.E.
T3 construct: made in house; host or cells: E. coli BL21(DE3)pLysS, pET3a vector
T3 sequence (P07107 2-87 M25C): T2 sequence (P07107 2-87 A54C) with M24C, C53A
Experimental: Development of a mathematical expression describing the relationship between acyl-CoA concentration and FACI-24 fluorescence was performed essentially as by Richieri et al 1992, J Biol Chem, 267:23495-23501. However, where ligand binding to ADIFAB induces both a fluorescence intensity increase around 505 nm and a fluorescence intensity decrease around 432 nm, ligand binding to FACI-24 only causes an increase in fluorescence around 460 nm.
Derivatisation of an expression for the fluorescence value as a function of the acyl-coA concentration was done using the Scatchard equation as a starting point: [formula]
which has been used to fit the titration data.
The curves represent the best fit analysis from two independent experiment calculated and normalized as described above. The FACI-24 binding affinity increases dramatically when the acyl-chain length increases from C8 to C10 and C12, a smaller but significant drop in Kd is seen by increasing chain length from C12 to C14. C14 to C18 saturated acyl-CoA esters and C18:1-CoA binds with similar and very high affinities to FACI-24. In >0.1 M salt, FACI-24 binds acyl-CoAs with higher affinity and similar specificity as native unmodified bovine ACBP. The Kd for binding of C12-CoA and C16-CoA to native ACBP is 40 and 2.0 nM, respectively (Fulcery et al Biochemical, 1997, 325:423-428; Færgeman et al 1996, Biochemistry, 35:14118-14126). FACI-24 is highly specific for binding long-chain acyl-CoA esters.
Titration of FACI with acyl-CoAs was done using a SPEX FLOUROLOG (Industries Inc, Edison N.J., USA) with excitation at 387 nm and emission at 460 nm, with both excitation and emission slits set to 4.5 nm. FACI (0.5-4.5 uM, as indicated) was dissolved in 1.5 ml binding buffer (10 mM HEPES 150 mM NaCl, 5 mM KCl, 1 mM Na2HPO4, pH 7.4) and titrated with a 10 μM acyl-CoA dissolved in binding buffer, with or without FACI added, as indicated. Fluorescence emission values (counts per second) measured without FACI added to the ligand stock solution were corrected for titrand dilution.
Up to four parameters were fitted in this way, these were B, representing the point of saturation on the X axis, H, representing the maximum fluorescence, i.e. the fluorescence at saturating concentration of acyl-CoA, L, the minimum fluorescence value, i.e. the fluorescence of FACI-24 alone in buffer, and K, the Kd value lor the acyl-CoA in question. Initial estimates for the fittable parameters were typically: B=1, H=maximum fluorescence value measured, L=minimum fluorescence value measured (at acyl-CoA-concentration=0), and K as judged from the raw data, typically from 0.0001 uM to 0.1 uM for acyl-CoA longer than C10:0-CoA.
For each acyl-CoA at least two titrations and fittings were performed. To consider two or more titrations of the same acyl-CoA together and obtain a Kd value using all these titrations, both axes of the raw data were standardised using the fitted values of B, H and L in this way:
X axis standard=(raw X axis values)/Bfitted
Y axis standard=[(raw Y axis values)−Lfitted]/[Hfitted−Lfitted]
In this way all Y axis values should come to lie between 0 and 1 and the X axis value should be 1 at the point of saturation (FACI-24:acyl-CoA 1:1). Such adjusted data were pooled and fitted using DataFit. Typically, both H and B fitted to values close to 1 and L fitted to values close to 0. K was typically fitted to values somewhere between the two values obtained for the raw data.
This could be overcome by removing B from the fittable parameters list and instead setting it to a constant value of 1 and fitting again. This was typically done for both the raw and the standardised data.

## CCCCCCCCCCCCCCCC(=O)SCCNC(=O)CCNC(=O)[C@H](O)C(C)(C)COP(=O)(O)OP(=O)(O)OC[C@H]1O[C@@H](n2cnc3c(N)ncnc32)[C@H](O)[C@@H]1OP(=O)(O)O [C16:0-CoA, palmitoyl-CoA]
[1]
  Kd: 2 nM
[2]
  Binding to FACI53 by isothermal titration calorimetry: binding was confirmed
[3]
  Kd: 0.65 ± 0.26 nM
